Source: US20180116220A1, “NOVEL TRIAZOLE DERIVATIVES” (BAYER CROPSCIENCE AKTIENGESELLSCHAFT, priority 2015, published 2018)
“And” between values parts separate entries of the source, which are not always exact repeats. Identical values can stand only once. Marks after values point to notes of the source that are not given here.

Tests used:
[1] = LogP by HPLC on reversed phase columns (EEC directive 79/831 Annex V.A8); assay type: physicochemical; settings: for chromatographic logP: reversed phase HPLC column
Procedure: [table] If more than one LogP value is available within the same method, all the values are given and separated by “+”. […] Lambda-max-values were determined using UV-spectra from 200 nm to 400 nm and the peak values of the chromatographic signals. Measurement of LogP values was performed as outlined above.

Phakopsora pachyrhizi = assay: Example S: in vivo preventive Phakopsora test (soybeans); comparison vs. known compounds; settings: rate of application 5 ppm, evaluated 7 days after inoculation
Procedure: The test is evaluated 7 days after the inoculation.

Venturia inaequalis = assay: Example R: in vivo preventive Venturia test (apples); comparison vs. known compounds; settings: rate of application 10 ppm, evaluated 10 days after inoculation
[2] = [a] LC-UV, acidic range, 0.1% formic acid in water and acetonitrile as eluent
[3] = [b] LC-UV, neutral range, 0.001 molar ammonium acetate solution in water and acetonitrile as eluent

Compound	LogP [1, 2]	LogP [1, 3]	further results
OC(Cn1cncn1)(c1ccc(F)cc1F)C1(Oc2ccc(Cl)cc2)CC1 (stereo not drawn) [Example I-10, 1-[1-(4-chlorophenoxy)cyclopropyl]-1-(2,4-difluorophenyl)-2-(1H-1,2,4-triazol-1-yl)ethanol]	–	–	chromatographic logP [1, 2]: 3.48; Efficacy in % (Phakopsora pachyrhizi): 95%; Efficacy in % (Venturia inaequalis): 100%
Fc1ccc(C2(C3(Oc4ccc(F)cc4Cl)CC3)CO2)c(F)c1 (stereo not drawn) [Example V-3]	4.45	4.44	–
Fc1ccc(C2(C3(Oc4ccccc4F)CC3)CO2)c(F)c1 (stereo not drawn) [Example V-4]	3.99^[a]	–	–
Fc1ccc(C2(C3(Oc4ccccc4Br)CC3)CO2)c(F)c1 (stereo not drawn) [Example V-5]	4.36	4.43	–
Fc1ccc(C2(C3(Oc4cccc(Br)c4)CC3)CO2)c(F)c1 (stereo not drawn) [Example V-6]	4.63	4.71	–
Fc1ccc(C2(C3(Oc4ccc(Br)cc4)CC3)CO2)c(F)c1 (stereo not drawn) [Example V-7]	4.66	4.74	–
Fc1ccc(C2(C3(Oc4ccccc4I)CC3)CO2)c(F)c1 (stereo not drawn) [Example V-8]	4.58	4.66	–
Fc1ccc(C2(C3(Oc4cccc(I)c4)CC3)CO2)c(F)c1 (stereo not drawn) [Example V-9]	4.82	4.90	–
Fc1ccc(C2(C3(Oc4ccc(I)cc4)CC3)CO2)c(F)c1 (stereo not drawn) [Example V-10]	4.87	4.95	–
Fc1ccc(C2(C3(Oc4ccc(Br)cc4F)CC3)CO2)c(F)c1 (stereo not drawn) [Example V-11]	4.57	4.65	–
Cc1cc(I)ccc1OC1(C2(c3ccc(F)cc3F)CO2)CC1 (stereo not drawn) [Example V-12]	–	5.40 and 5.48	–
N#Cc1cc(I)ccc1OC1(C2(c3ccc(F)cc3F)CO2)CC1 (stereo not drawn) [Example V-13]	4.14	4.21	–
Cc1cc(Br)ccc1OC1(C2(c3ccc(F)cc3F)CO2)CC1 (stereo not drawn) [Example V-14]	5.25^[a]; 5.25^[b]	5.25^[a]; 5.25^[b]	–
Fc1ccc(C2(C3(Oc4ccc(OC(F)(F)F)cc4)CC3)CO2)c(F)c1 (stereo not drawn) [Example V-15]	4.70	4.86	–
Fc1ccc(C2(C3(Oc4ccc(SC(F)(F)F)cc4)CC3)CO2)c(F)c1 (stereo not drawn) [Example V-16]	5.23	5.24	–
Fc1ccc(OC2(C3(c4ccc(Cl)cc4F)CO3)CC2)c(F)c1 (stereo not drawn) [Example V-17]	4.56^[a]	–	–
Fc1ccc(C2(C3(Oc4c(F)cccc4F)CC3)CO2)c(F)c1 (stereo not drawn) [Example V-18]	4.11^[a]	–	–
Fc1ccc(C2(C3(Oc4c(Cl)cccc4Cl)CC3)CO2)c(F)c1 (stereo not drawn) [Example V-19]	4.80^[a]	–	–
Fc1ccc(C2(C3(Oc4c(F)cccc4Cl)CC3)CO2)c(F)c1 (stereo not drawn) [Example V-20]	4.49^[a]	–	–
Fc1ccc(C2(C3(Oc4c(F)cccc4Br)CC3)CO2)c(F)c1 (stereo not drawn) [Example V-21]	4.59^[a]	–	–
O=C(c1ccc(F)cc1F)C1(Oc2ccc(Br)cc2)CC1 [IV-1, [1-(4-bromophenoxy)cyclopropyl](2,4-difluorophenyl)methanone]	–	–	chromatographic logP [1, 2]: 4.32
O=C(c1ccc(F)cc1F)C1(Oc2ccc(Cl)cc2)CC1 [IV-2]	4.22^[a]	–	–
O=C(c1ccc(F)cc1F)C1(Oc2ccc(Cl)cc2F)CC1 [IV-3]	4.23	4.24	–
O=C(c1ccc(F)cc1F)C1(Oc2ccc(F)cc2Cl)CC1 [IV-4]	4.21^[a]; 4.21^[b]	4.21^[a]; 4.21^[b]	–

Second part, led by results:

LogP [1, 2]	LogP [1, 3]	Compound	further results
3.73^[a]	–	O=C(c1ccc(F)cc1F)C1(Oc2ccccc2F)CC1 [IV-5]	–
4.14	4.19	O=C(c1ccc(F)cc1F)C1(Oc2ccccc2Br)CC1 [IV-6]	–
4.32	4.36	O=C(c1ccc(F)cc1F)C1(Oc2cccc(Br)c2)CC1 [IV-7]	–
4.35	4.40	O=C(c1ccc(F)cc1F)C1(Oc2ccccc2I)CC1 [IV-8]	–
4.50	4.53	O=C(c1ccc(F)cc1F)C1(Oc2cccc(I)c2)CC1 [IV-9]	–
4.54	4.57	O=C(c1ccc(F)cc1F)C1(Oc2ccc(I)cc2)CC1 [IV-10]	–
4.33	4.36	O=C(c1ccc(F)cc1F)C1(Oc2ccc(Br)cc2F)CC1 [IV-11]	–
5.06	5.08	Cc1cc(I)ccc1OC1(C(=O)c2ccc(F)cc2F)CC1 [IV-12]	–
3.90	3.92	N#Cc1cc(I)ccc1OC1(C(=O)c2ccc(F)cc2F)CC1 [IV-13]	–
4.88	4.87	Cc1cc(Br)ccc1OC1(C(=O)c2ccc(F)cc2F)CC1 [IV-14]	–
4.49	4.53	O=C(c1ccc(F)cc1F)C1(Oc2ccc(OC(F)(F)F)cc2)CC1 [IV-15]	–
4.86	4.92	O=C(c1ccc(F)cc1F)C1(Oc2ccc(SC(F)(F)F)cc2)CC1 [IV-16]	–
3.87^[a]	–	O=C(c1ccc(F)cc1F)C1(Oc2c(F)cccc2F)CC1 [IV-17]	–
4.59^[a]	–	O=C(c1ccc(F)cc1F)C1(Oc2c(Cl)cccc2Cl)CC1 [IV-18]	–
4.26^[a]	–	O=C(c1ccc(F)cc1F)C1(Oc2c(F)cccc2Cl)CC1 [IV-19]	–
4.34^[a]	–	O=C(c1ccc(F)cc1F)C1(Oc2c(F)cccc2Br)CC1 [IV-20]	–
4.75^[a]	–	O=C(c1ccc(Cl)cc1F)C1(Oc2ccc(Cl)cc2)CC1 [IV-21]	–
4.72^[a]	–	O=C(c1ccc(Cl)cc1F)C1(Oc2ccc(Cl)cc2F)CC1 [IV-22]	–
4.44^[a]	–	O=C(c1ccc(F)cc1F)C1(Oc2ccc(C(F)(F)F)cc2)CC1 [IV-23]	–
4.34^[a]	–	O=C(c1ccc(F)cc1F)C1(Oc2cccc(Cl)c2)CC1 [IV-24]	–
4.41^[a]	–	O=C(c1ccc(F)cc1F)C1(Oc2ccc(Cl)c(F)c2)CC1 [IV-25]	–
3.99^[a]	–	O=C(c1ccc(F)cc1F)C1(Oc2ccc(Br)c(F)c2)CC1 [IV-26]	–
3.94^[a]	–	O=C(c1ccc(F)cc1F)C1(Oc2ccc(OC(F)F)cc2)CC1 [IV-27]	–
4.21^[a]	–	O=C(c1ccc(F)cc1F)C1(Oc2cccc(Cl)c2F)CC1 [IV-28]	–
